Results: patent US20030134305A1, “Method for the enumeration of mammalian micronucleated erythrocyte populations with a single-laser flow cytometer” (priority 2001, published 2003)
Values joined by “and” are separate entries in the source; they are usually repeats but may differ in a detail not shown here. Equal values may be shown once.

Test system: rat peripheral blood erythrocyte populations
Details: male rat, oral, 10 mg/kg body weight/day for 6 days
[1] = tail vein blood ~24 hours after final administration, single replicate, 10 mg/kg/day

**Q.** Which “% RET^CD71+ (CD71-positive reticulocytes)” value (tail vein blood ~24 hours after final administration, single replicate, 20,000 RETs per replicate) does the source give for `O=P1(N(CCCl)CCCl)NCCCO1` (centres unmarked) [cyclophosphamide] here?
**A.** 2.66% and 2.72% and 2.57%

**Q.** And the “% MN-NCE (micronucleated normochromatic erythrocytes)” value [1]?
**A.** 0.05% and 0.04% (2×)

**Q.** And the “% MN-RET^CD71+ (micronucleated CD71-positive reticulocytes)” value [1]?
**A.** 0.73% and 0.64% and 0.63%

**Q.** What about the “% MN-NCE (micronucleated normochromatic erythrocytes), Avg.” value (Avg. of 3 replicates) of the same compound?
**A.** 0.04%

**Q.** What about the “% MN-RET^CD71+ (micronucleated CD71-positive reticulocytes), Avg.” value (Avg. of 3 replicates) of the same compound?
**A.** 0.67%

**Q.** And the “% RET^CD71+ (CD71-positive reticulocytes), Avg.” value (Avg. of 3 replicates)?
**A.** 2.65%

**Q.** And the “DNA-breaking activity: MN-RET^CD71+ frequency versus water-treated rat” value (result in words)?
**A.** increased

**Q.** And the “cytostatic effect: RET^CD71+ frequency versus water-treated rat” value (result in words)?
**A.** decreased
